From US20250338846A1, “COMPOSITIONS HAVING PESTICIDAL UTILITY AND PROCESSES RELATED THERETO” (CORTEVA AGRISCIENCE, LLC, priority 2022, published 2025)
Values joined by “and” are separate entries in the source; they are usually repeats but may differ in a detail not shown here. Equal values may be shown once.

Assays:
Assay type in all cases: in vivo
[1] = test system: Cotton Aphid (Aphis gossypii, APHIGO); experiment: Bioassay 7: Cotton Aphid, foliar spray on infested cotton seedlings, live aphids counted three days after treatment
[2] = test system: Diamondback Moth (Plutella xylostella, PLUTMA); experiment: Bioassay 9: Diamondback Moth, leaves of track-sprayed cabbage plants, mortality and feeding damage scored
[3] = test system: Diamondback Moth (Plutella xylostella, PLUTMA); experiment: as above; conditions: F1 alone 40 (10^-5) Wt %

SMILES: CCN(C(=O)CCS(C)(=O)=O)c1sc(-c2cccnc2)nc1Cl [Formula F1, N-(4-chloro-2-(pyridin-3-yl)thiazol-5-yl)-N-ethyl-3-(methylsulfonyl)propanamide]
- Average % Control F1 ([1]; F1 alone 0.1 (10^-5) Wt %): 24.39%
- Average % Control F1 ([1]; F1 alone 0.2 (10^-5) Wt %): 5.79%
- Average % Control F1 ([1]; F1 alone 0.78 (10^-5) Wt %): 25.58%
- Average % Control F1 ([1]; F1 alone 0.8 (10^-5) Wt %): 24.39% and 47.56%
- Average % Control F1 ([1]; F1 alone 2.5 (10^-5) Wt %): 29.04%
- Average % Control F1 ([2]; F1 alone 10 (10^-5) Wt %): 0.00%
- Average % Control F1 ([2]; Feeding damage control, F1 alone 20 (10^-5) Wt %): 17.64%
- Average % Control F1 ([3]; Acute mortality): 6.82%
- Average % Control F1 ([3]; Feeding damage control): 8.53%
